Laboratory results reported in patent US7943340B2, “Fungal dipeptidyl peptidase IV (DPPIV) enzyme for reagent use” (priority 2003, dated 2011).
“Also recorded” adds a separate entry of the source. Read-outs that look alike come from different tables or passages of the source.

Legend:
[1] = biological target: T1, pkLAP (microsomal LAP from porcine kidney) (Sus scrofa, UniProt P15145); assay: Effect of chemical reagents (inhibitors, metallic cations) on LAP activity with Leu-AMC; format: biochemical; settings: Leu-MCA substrate; for pkLAP hydrolytic activity, percentage of control without inhibitor: inhibitor 20 μM
T1 construct: purchased Sigma; host or cells: porcine kidney
T1 sequence (P15145 1-963): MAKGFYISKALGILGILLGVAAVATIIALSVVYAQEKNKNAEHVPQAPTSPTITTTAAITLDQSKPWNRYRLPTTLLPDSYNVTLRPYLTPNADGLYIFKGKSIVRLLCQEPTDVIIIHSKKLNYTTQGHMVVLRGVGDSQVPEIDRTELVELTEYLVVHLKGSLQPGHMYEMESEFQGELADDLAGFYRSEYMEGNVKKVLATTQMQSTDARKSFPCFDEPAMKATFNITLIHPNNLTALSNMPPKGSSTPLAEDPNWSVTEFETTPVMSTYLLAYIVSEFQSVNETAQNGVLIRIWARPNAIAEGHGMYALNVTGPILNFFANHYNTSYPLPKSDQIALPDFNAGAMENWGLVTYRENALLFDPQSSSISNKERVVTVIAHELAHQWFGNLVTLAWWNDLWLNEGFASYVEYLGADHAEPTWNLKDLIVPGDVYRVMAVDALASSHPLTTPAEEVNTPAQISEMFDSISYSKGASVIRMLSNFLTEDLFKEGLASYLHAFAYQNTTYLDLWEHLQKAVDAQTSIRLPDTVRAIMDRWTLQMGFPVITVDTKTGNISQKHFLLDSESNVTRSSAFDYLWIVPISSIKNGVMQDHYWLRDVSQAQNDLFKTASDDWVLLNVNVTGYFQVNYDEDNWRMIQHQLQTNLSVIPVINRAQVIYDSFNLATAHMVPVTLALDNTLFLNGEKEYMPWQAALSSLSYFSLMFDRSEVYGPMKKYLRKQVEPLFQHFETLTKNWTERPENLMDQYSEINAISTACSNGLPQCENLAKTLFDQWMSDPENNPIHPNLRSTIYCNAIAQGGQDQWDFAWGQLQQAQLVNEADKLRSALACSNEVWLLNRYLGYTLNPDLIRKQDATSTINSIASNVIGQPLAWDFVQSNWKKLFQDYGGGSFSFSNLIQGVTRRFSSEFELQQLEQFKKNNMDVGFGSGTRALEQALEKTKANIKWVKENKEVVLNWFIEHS
Protocol: (§1) Inhibitors and metallic cations were pre-incubated with the enzymes for 15 min at 37° C. Then, Leu-AMC at a 5 mM final concentration was added. After further incubation for 60 min, enzyme activity was measured as described above. The inhibitors and their concentrations tested purified LAPs were: 500 μM amastatin (Bachem), 40 μM benzamidine (Sigma), 500 μM bestatin (Bachem), 5 mM/l mM EDTA (Sigma). 100 μM E-64 (L-trans-epoxysuccinyl-leu-4-guanidinobutylamide) (Bachem), 100 μM leupeptin (Sigma), 5 mM/1 mM ortho-phenanthroline (Sigma), 500 μM p-chloromercuribenzoic acid (Sigma), 100 μM pepstatin A (Sigma), 40 μM PMSF (Sigma), 20 μM TLCK (Roche Diagnostics), and 20 μM TPCK (Roche Diagnostics).

[2] = test system: fuLAP2; format: biochemical, Aspergillus fumigatus; settings: for fuLAP2 hydrolytic activity, percentage of control without inhibitor: inhibitor 20 μM; for fuLAP2 hydrolytic activity, percentage of control without inhibitor / fuLAP2 hydrolytic activity, percentage of control without any cation: Leu-MCA substrate
Protocol: as §1

[3] = biological target: fuLAP1 (Aspergillus fumigatus, UniProt Q5VJG6); format: biochemical; settings: Leu-MCA substrate; for fuLAP1 hydrolytic activity, percentage of control without inhibitor: inhibitor 20 μM
Protocol: as §1

[4] = biological target: ruLAP2 (Trichophyton rubrum, UniProt Q5QHG6); format: biochemical; settings: for ruLAP2 hydrolytic activity, percentage of control without inhibitor: inhibitor 20 μM; for ruLAP2 hydrolytic activity, percentage of control without inhibitor / ruLAP2 hydrolytic activity, percentage of control without any cation: Leu-MCA substrate
Protocol: as §1

[5] = biological target: ruLAP1 (Trichophyton rubrum, UniProt Q5QHG5); format: biochemical; settings: Leu-MCA substrate; for ruLAP1 hydrolytic activity, percentage of control without inhibitor: inhibitor 20 μM
Protocol: as §1

[6] = test system: all the LAPs tested (ruLAP1, ruLAP2, fuLAP1, fuLAP2, pkLAP); format: biochemical; settings: for effect of inhibitor on all the LAPs tested: Leu-AMC 5 mM, amastatin 500 μM, ortho-phenantroline 1 and 5 mM, others as
Protocol: as §1

[7] = test system: gliadin 33 mer; assay: Digestion of gliadin 33 mer (RP-HPLC, ESI-MS); format: biochemical, wheat
[8] = Aminopeptidase P activity assay; format: biochemical; settings: substrate Lys(Abz)-Pro-Pro-pNA, 5 mM, 37° C., 60 min
Protocol: (§2) Aminopeptidase activity was determined using different fluorogenic aminoacyl-4-methylcoumaryl-7-amide derivatives of peptides and the internally quenched fluorogenic substrate Lys(Abz)-Pro-Pro-pNA for specific determination of aminopeptidase P activity. Stockel et al, Adv Exp. Med. Biol. 421:31-35 (1997). All substrates were from Bachem (Bubendorf, Switzerland). Substrate stock solutions were prepared at 0.1 M according to the recommendations of the manufacturer and stored at −20° C. The reaction mixture contained a concentration of 5 mM substrate and enzyme preparation (between 56 and 2,662 ng per assay depending on the cleavage activity of each enzyme for the substrates) in 25 μl of 50 mM Tris-HCl buffer adjusted at the optimal pH for each LAP (between 7 and 8). After incubation at 37° C. for 60 min, the reaction was terminated by adding 5 μl of glacial acetic acid and the reaction mixture was diluted with 3.5 ml of water. The released 7-amino-4-methylcoumarin (AMC) was measured using a spectrofluorophotometer (Perkin Elmer LS-5 fluorometer, Zurich, Switzerland) at an excitation wavelength of 370 nm and an emission wavelength of 460 nm. A standard curve made with synthetic AMC was used to assess the released AMC. The released diprolyl-p-nitroanilide was measured at an excitation wavelength of 310 nm and an emission wavelength of 410 nm. The LA activities were expressed in mnoles of released AMC or pNA/min/μg protein.

[9] = Aminopeptidase activity assay with fluorogenic aminoacyl-AMC substrates; format: biochemical
Protocol: as §2
Table 15 details the hydrolytic activity of different LAPs toward various aminoacyl-MCA comparison (%) to Leu-MCA used as a standard.

Sequence of ruLAP2 (Q5QHG6 22-495): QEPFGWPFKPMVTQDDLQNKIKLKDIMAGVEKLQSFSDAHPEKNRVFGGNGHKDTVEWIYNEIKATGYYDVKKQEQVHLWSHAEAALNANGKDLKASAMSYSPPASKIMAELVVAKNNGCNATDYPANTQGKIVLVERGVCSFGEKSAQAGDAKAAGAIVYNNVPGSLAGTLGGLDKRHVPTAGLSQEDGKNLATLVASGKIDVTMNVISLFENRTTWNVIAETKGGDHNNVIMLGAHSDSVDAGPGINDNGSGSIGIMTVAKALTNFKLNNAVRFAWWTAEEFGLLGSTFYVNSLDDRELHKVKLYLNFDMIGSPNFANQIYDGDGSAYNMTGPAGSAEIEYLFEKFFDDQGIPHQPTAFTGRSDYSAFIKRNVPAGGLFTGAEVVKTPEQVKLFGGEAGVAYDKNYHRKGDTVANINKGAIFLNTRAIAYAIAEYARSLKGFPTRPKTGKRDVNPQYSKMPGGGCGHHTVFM
Sequence of ruLAP1 (Q5QHG5 19-373): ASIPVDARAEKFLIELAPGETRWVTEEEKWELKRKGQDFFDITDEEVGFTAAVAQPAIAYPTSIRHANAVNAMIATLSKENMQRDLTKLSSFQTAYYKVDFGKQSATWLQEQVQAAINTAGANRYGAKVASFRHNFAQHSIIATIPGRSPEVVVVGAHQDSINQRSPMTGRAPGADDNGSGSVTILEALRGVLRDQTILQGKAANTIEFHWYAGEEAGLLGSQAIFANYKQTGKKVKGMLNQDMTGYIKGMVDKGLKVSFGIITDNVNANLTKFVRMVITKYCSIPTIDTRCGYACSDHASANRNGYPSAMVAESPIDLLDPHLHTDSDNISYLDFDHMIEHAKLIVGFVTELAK

Cc1ccc(S(=O)(=O)N[C@@H](CCCCN)C(=O)CCl)cc1 [TLCK]
pkLAP hydrolytic activity, percentage of control without inhibitor [1]: 113%
fuLAP2 hydrolytic activity, percentage of control without inhibitor [2]: 120%
fuLAP1 hydrolytic activity, percentage of control without inhibitor [3]: 80%
ruLAP2 hydrolytic activity, percentage of control without inhibitor [4]: 96%
ruLAP1 hydrolytic activity, percentage of control without inhibitor [5]: 68%
effect of inhibitor on all the LAPs tested [6]: no clear inhibitory effects

Cc1ccc(S(=O)(=O)N[C@@H](Cc2ccccc2)C(=O)CCl)cc1 [TPCK]
pkLAP hydrolytic activity, percentage of control without inhibitor [1]: 108%
fuLAP2 hydrolytic activity, percentage of control without inhibitor [2]: 87%
fuLAP1 hydrolytic activity, percentage of control without inhibitor [3]: 95%
ruLAP2 hydrolytic activity, percentage of control without inhibitor [4]: 79%
ruLAP1 hydrolytic activity, percentage of control without inhibitor [5]: 68%
effect of inhibitor on all the LAPs tested [6]: no clear inhibitory effects

[Cl-].[Cl-].[Co+2] [Co^++, CoCl2]
pkLAP hydrolytic activity, percentage of control without any cation ([1]; cation salt 0.5 mM): 876.1%
pkLAP hydrolytic activity, percentage of control without any cation ([1]; cation salt 1 mM): 899.8%
effect of divalent cation on fuLAP2 activity ([2]; Leu-AMC substrate): highly activated
fuLAP2 hydrolytic activity, percentage of control without any cation ([2]; cation salt 0.5 mM): 378.0%
fuLAP2 hydrolytic activity, percentage of control without any cation ([2]; cation salt 1 mM): 662.7%
fuLAP1 hydrolytic activity, percentage of control without any cation ([3]; cation salt 0.5 mM): 104.3%
fuLAP1 hydrolytic activity, percentage of control without any cation ([3]; cation salt 1 mM): 96.5%
effect of divalent cation on ruLAP2 activity ([4]; Leu-AMC substrate): highly activated
ruLAP2 hydrolytic activity, percentage of control without any cation ([4]; cation salt 0.5 mM): 591.2%
ruLAP2 hydrolytic activity, percentage of control without any cation ([4]; cation salt 1 mM): 789.7%
ruLAP1 hydrolytic activity, percentage of control without any cation ([5]; cation salt 0.5 mM): 210.2%
ruLAP1 hydrolytic activity, percentage of control without any cation ([5]; cation salt 1 mM): 202.1%
increase of the activity of the LAPs ([6]; concentration up to 1 mM, with the exception of fuLAP1): 200% to 900%

Chymotrypsin [reference compound]
digestion of the peptide with other enzymes ([7]; 20 h, combinations with both enzymes at E/S (w:w) 1:50): not able to breakdown the peptide

B1: Cytosolic porcine kidney aminopeptidase: cytosolic leucine aminopeptidase from porcine kidney, Sigma (protein, UniProt P28839 1-519, looked up)
Cytosol aminopeptidase: MFLLPLPAAARVAVRQLSVRRFWGPGPDAANMTKGLVLGIYSKEKEDDAPQFTSAGENFDKLVSGKLREILNISGPPLKAGKTRTFYGLHEDFSSVVVVGLGKKGAGVDDQENWHEGKENIRAAVAAGCRQIQDLEIPSVEVDPCGDAQAAAEGAVLGLYEYDELKQKKKVVVSAKLHGSGDQEAWQRGVLFASGQNLARHLMETPANEMTPTRFAEVIEKNLKSASSKTDVHIRPKSWIEEQEMGSFLSVAKGSEEPPVFLEIHYKGSPDASDPPLVFVGKGITFDSGGISIKASANMDLMRADMGGAATICSTIVSAAKLDLPINLVGLAPLCENMPSGKANKPGDVVRAKNGKTIQVDNTDAEGRLILADALCYAHTFNPKVIINAATLTGAMDIALGSGATGVFTNSSWLWNKLFEASIETGDRVWRMPLFEHYTKQIVDCQLADVNNIGKYRSAGACTAAAFLKEFVTHPKWAHLDIAGVMTNKDEVPYLRKGMAGRPTRTLIEFLLRFSQDSA
digestion of the 33 mer ([7]; 37° C., 1 mM CoCl2, pH7.2): totally inactive

B2: fuLAP1: A. fumigatus leucine aminopeptidase, 388 amino acid residues (SEQ ID NO: 12) (protein, listed as Aspergillus fumigatus)
chain: MKVLTAIALSAIAFTGAVAAVITQEAFLNNPRIHHDQEKYLIELAPYRTRWVTEEEKWALKLDGVNFIDITEEHNTGFYPTLHSASYVKYPPKMQYAEEVAALNKNLSKENMKANLERFTSFHTRYYKSQTGIRSATWLFDQVQRVVSESGAAEYGATVERFSHPWGQFSIIARIPGRTNKTVVLGAHQDSINLFLPSILAAPGADDDGSGTVTILEALRGLLQSDAIAKGNASNTVEFHWYSAEEGGMLGSQAIFSNYKRNRREIKAMLQQDMTGYVQGALNAGVEEAIGIMVDYVDQGLTQFLKDVVTAYCSVGYLETKCGYACSDHTSASKYGYPAAMATEAEMENTNKKIHTTDDKIKYLSFDHMLEHAKLSLGFAFELAFAPF
hydrolytic activity toward Lys(Abz) Pro-PropNA in comparison (%) to Leu-MCA [8]: 0.0%
hydrolysis of Leu-AMC [9]: efficiently hydrolyzed
preference for aminoacyl-AMC substrates compared to Leu-AMC ([9]; Leu-AMC used as a reference): appreciated Arg-, Val-, and Phe-AMC; also recorded: common preference for Leu-AMC as a substrate
hydrolytic activity toward Ala-AMC in comparison (%) to Leu-MCA ([9]; substrate Ala-AMC, 5 mM, 37° C., 60 min): 4.7%
hydrolytic activity toward Arg-AMC in comparison (%) to Leu-MCA ([9]; substrate Arg-AMC, 5 mM, 37° C., 60 min): 53.9%
hydrolytic activity toward Asn-AMC in comparison (%) to Leu-MCA ([9]; substrate Asn-AMC, 5 mM, 37° C., 60 min): 29.4%
hydrolytic activity toward Asp-AMC in comparison (%) to Leu-MCA ([9]; substrate Asp-AMC, 5 mM, 37° C., 60 min): 0.8%
hydrolytic activity toward Cys-AMC in comparison (%) to Leu-MCA ([9]; substrate Cys-AMC, 5 mM, 37° C., 60 min): 5.0%
hydrolytic activity toward Gln-AMC in comparison (%) to Leu-MCA ([9]; substrate Gln-AMC, 5 mM, 37° C., 60 min): 44.9%
hydrolytic activity toward Glu-AMC in comparison (%) to Leu-MCA ([9]; substrate Glu-AMC, 5 mM, 37° C., 60 min): 0.0%
hydrolytic activity toward Gly-AMC in comparison (%) to Leu-MCA ([9]; substrate Gly-AMC, 5 mM, 37° C., 60 min): 0.8%
hydrolytic activity toward Gly-Pro-AMC in comparison (%) to Leu-MCA ([9]; substrate Gly-Pro-AMC, 5 mM, 37° C., 60 min): 5.4%
hydrolytic activity toward His-AMC in comparison (%) to Leu-MCA ([9]; substrate His-AMC, 5 mM, 37° C., 60 min): 0.8%
hydrolytic activity toward Hyp-AMC in comparison (%) to Leu-MCA ([9]; substrate Hyp-AMC, 5 mM, 37° C., 60 min): 3.9%
hydrolytic activity toward Ile-AMC in comparison (%) to Leu-MCA ([9]; substrate Ile-AMC, 5 mM, 37° C., 60 min): 13.2%
hydrolytic activity toward Leu-AMC in comparison (%) to Leu-MCA used as a standard ([9]; substrate Leu-AMC (standard), 5 mM, 37° C., 60 min): 100.0%
hydrolytic activity toward Lys-AMC in comparison (%) to Leu-MCA ([9]; substrate Lys-AMC, 5 mM, 37° C., 60 min): 7.7%
hydrolytic activity toward Met-AMC in comparison (%) to Leu-MCA ([9]; substrate Met-AMC, 5 mM, 37° C., 60 min): 116.9%
hydrolytic activity toward Phe-AMC in comparison (%) to Leu-MCA ([9]; substrate Phe-AMC, 5 mM, 37° C., 60 min): 163.7%
hydrolytic activity toward Pro-AMC in comparison (%) to Leu-MCA ([9]; substrate Pro-AMC, 5 mM, 37° C., 60 min): 12.0%
hydrolytic activity toward Pyr-AMC in comparison (%) to Leu-MCA ([9]; substrate Pyr-AMC, 5 mM, 37° C., 60 min): 0.0%
hydrolytic activity toward Ser-AMC in comparison (%) to Leu-MCA ([9]; substrate Ser-AMC, 5 mM, 37° C., 60 min): 10.3%
hydrolytic activity toward Thr-AMC in comparison (%) to Leu-MCA ([9]; substrate Thr-AMC, 5 mM, 37° C., 60 min): 5.1%
hydrolytic activity toward Val-AMC in comparison (%) to Leu-MCA ([9]; substrate Val-AMC, 5 mM, 37° C., 60 min): 27.6%
